Source: ChEMBL document CHEMBL4308841, “Synthesis, in vitro antiproliferative activity, and kinase inhibitory effects of pyrazole-containing diarylureas and diarylamides” (Eur J Med Chem, 2018)

The compounds below were run on A549 (assay: Growth inhibition of human A549/ATCC cells assessed as cell growth at 1 uM incubated for 48 hrs by sulforhodamine B assay relative to control). Details: A549, 48 h, read-out: Activity.
Format: functional

With O=C(Nc1cccc(-n2cc(-c3ccncc3)c(-c3cc(O)cc(Cl)c3)n2)c1)Nc1ccc(Cl)c(C(F)(F)F)c1 as the compound, how does the growth at 1 µM read?
The growth at 1 µM was 81%.

These compounds were tested on IGROV-1 (assay: Growth inhibition of human IGROV1 cells assessed as cell growth at 0.01 uM incubated for 48 hrs by sulforhodamine B assay relative to control). Details: IGROV-1, 48 h, read-out: Activity.
Format: functional

O=C(Nc1cccc(-n2cc(-c3ccncc3)c(-c3cc(O)cc(Cl)c3)n2)c1)Nc1ccc(Cl)c(C(F)(F)F)c1 was tested. Which growth at 0.01 µM did it give?
The growth at 0.01 µM was 94%.

The compounds below were run on SK-MEL-2 (assay: Growth inhibition of human SK-MEL-2 cells assessed as cell growth at 1 uM incubated for 48 hrs by sulforhodamine B assay relative to control). Details: SK-MEL-2, 48 h, read-out: Activity.
Format: functional

Which growth at 1 µM does the source give for O=C(Nc1cccc(-n2cc(-c3ccncc3)c(-c3cc(O)cc(Cl)c3)n2)c1)Nc1ccc(Cl)c(C(F)(F)F)c1 here?
The growth at 1 µM was 104%.

The compounds below were run on CAKI-1 (assay: Growth inhibition of human Caki1 cells assessed as cell growth at 1 uM incubated for 48 hrs by sulforhodamine B assay relative to control). Details: CAKI-1, 48 h, read-out: Activity.
Format: functional

Which growth at 1 µM does the source give for O=C(Nc1cccc(-n2cc(-c3ccncc3)c(-c3cc(O)cc(Cl)c3)n2)c1)Nc1ccc(Cl)c(C(F)(F)F)c1 here?
Its growth at 1 µM is 98%.

The compounds below were run on HCT-116 (assay: Growth inhibition of human HCT116 cells assessed as cell growth at 0.01 uM incubated for 48 hrs by sulforhodamine B assay relative to control). Details: HCT-116, 48 h, read-out: Activity.
Format: functional

With O=C(Nc1cccc(-n2cc(-c3ccncc3)c(-c3cc(O)cc(Cl)c3)n2)c1)Nc1ccc(Cl)c(C(F)(F)F)c1 as the compound, how does the growth at 0.01 µM read?
The growth at 0.01 µM was 104%.

The compounds below were run on NCI-H460 (assay: Growth inhibition of human NCI-H460 cells assessed as cell growth at 1 uM incubated for 48 hrs by sulforhodamine B assay relative to control). Details: NCI-H460, 48 h, read-out: Activity.
Format: functional

How did the growth at 1 µM turn out when O=C(Nc1cccc(-n2cc(-c3ccncc3)c(-c3cc(O)cc(Cl)c3)n2)c1)Nc1ccc(Cl)c(C(F)(F)F)c1 was run?
The growth at 1 µM was 96%.

What follows are compounds tested on NCI/ADR-RES (assay: Growth inhibition of human NCI/ADR-RES cells assessed as cell growth at 0.01 uM incubated for 48 hrs by sulforhodamine B assay relative to control). Details: read-out: Activity.
Format: functional

Which growth at 0.01 µM does the source give for O=C(Nc1cccc(-n2cc(-c3ccncc3)c(-c3cc(O)cc(Cl)c3)n2)c1)Nc1ccc(Cl)c(C(F)(F)F)c1 here?
The growth at 0.01 µM was 96%.

What follows are compounds tested on PC-3 (assay: Growth inhibition of human PC3 cells assessed as cell growth at 1 uM incubated for 48 hrs by sulforhodamine B assay relative to control). Details: PC-3, 48 h, read-out: Activity.
Format: functional

How did the growth at 1 µM turn out when O=C(Nc1cccc(-n2cc(-c3ccncc3)c(-c3cc(O)cc(Cl)c3)n2)c1)Nc1ccc(Cl)c(C(F)(F)F)c1 was run?
Its growth at 1 µM is 83%.

What follows are compounds tested on SK-OV-3 (assay: Growth inhibition of human SKOV3 cells assessed as cell growth at 100 uM incubated for 48 hrs by sulforhodamine B assay relative to control). Details: SK-OV-3, 48 h, read-out: Activity.
Format: functional

Which growth at 100 µM does the source give for O=C(Nc1cccc(-n2cc(-c3ccncc3)c(-c3cc(O)cc(Cl)c3)n2)c1)Nc1ccc(Cl)c(C(F)(F)F)c1 here?
Its growth at 100 µM is -15%.

The compounds below were run on UACC-257 (assay: Growth inhibition of human UACC257 cells assessed as cell growth at 0.01 uM incubated for 48 hrs by sulforhodamine B assay relative to control). Details: UACC-257, 48 h, read-out: Activity.
Format: functional

Which growth at 0.01 µM does the source give for O=C(Nc1cccc(-n2cc(-c3ccncc3)c(-c3cc(O)cc(Cl)c3)n2)c1)Nc1ccc(Cl)c(C(F)(F)F)c1 here?
Its growth at 0.01 µM is 90%.

The compounds below were run on MDA-MB-435 (assay: Growth inhibition of human MDA-MB-435 cells incubated for 48 hrs by sulforhodamine B assay). Details: MDA-MB-435, 48 h, read-out: GI50.
Format: functional, cell-based

With O=C(Nc1cccc(-n2cc(-c3ccncc3)c(-c3cc(O)cc(Cl)c3)n2)c1)Nc1ccc(Cl)c(C(F)(F)F)c1 as the compound, how does the GI50 read?
Its GI50 is 1.73 µM.

Same assay, conditions: MDA-MB-435, 48 h, read-out: LC50

O=C(Nc1cccc(-n2cc(-c3ccncc3)c(-c3cc(O)cc(Cl)c3)n2)c1)Nc1ccc(Cl)c(C(F)(F)F)c1 was tested. Which LC50 did it give?
The LC50 was 55.2 µM.

Same assay, conditions: MDA-MB-435, 48 h, read-out: TGI

With O=C(Nc1cccc(-n2cc(-c3ccncc3)c(-c3cc(O)cc(Cl)c3)n2)c1)Nc1ccc(Cl)c(C(F)(F)F)c1 as the compound, how does the TGI read?
The TGI was 30 µM.

Same assay, conditions: MDA-MB-435, 48 h, read-out: pGI50 (converted)

For O=C(Nc1cccc(-n2cc(-c3ccncc3)c(-c3cc(O)cc(Cl)c3)n2)c1)Nc1ccc(Cl)c(C(F)(F)F)c1, which GI50 is on record?
Its GI50 is 1.78 µM.

Same assay, conditions: MDA-MB-435, 48 h, read-out: pLC50 (converted)

For O=C(Nc1cccc(-n2cc(-c3ccncc3)c(-c3cc(O)cc(Cl)c3)n2)c1)Nc1ccc(Cl)c(C(F)(F)F)c1, which LC50 is on record?
The LC50 was 8.51 µM.

Same assay, conditions: MDA-MB-435, 48 h, read-out: pTGI (converted)

O=C(Nc1cccc(-n2cc(-c3ccncc3)c(-c3cc(O)cc(Cl)c3)n2)c1)Nc1ccc(Cl)c(C(F)(F)F)c1 was tested. Which TGI did it give?
Its TGI is 3.89 µM.

These compounds were tested on NCI/ADR-RES (assay: Growth inhibition of human NCI/ADR-RES cells assessed as cell growth at 100 uM incubated for 48 hrs by sulforhodamine B assay relative to control). Details: read-out: Activity.
Format: functional

O=C(Nc1cccc(-n2cc(-c3ccncc3)c(-c3cc(O)cc(Cl)c3)n2)c1)Nc1ccc(Cl)c(C(F)(F)F)c1 was tested. Which growth at 100 µM did it give?
The growth at 100 µM was -15%.

What follows are compounds tested on SK-MEL-28 (assay: Growth inhibition of human SK-MEL-28 cells assessed as cell growth at 1 uM incubated for 48 hrs by sulforhodamine B assay relative to control). Details: SK-MEL-28, 48 h, read-out: Activity.
Format: functional

With O=C(Nc1cccc(-n2cc(-c3ccncc3)c(-c3cc(O)cc(Cl)c3)n2)c1)Nc1ccc(Cl)c(C(F)(F)F)c1 as the compound, how does the growth at 1 µM read?
The growth at 1 µM was 81%.

Each compound was assayed on SN12C (assay: Growth inhibition of human SN12C cells assessed as cell growth at 100 uM incubated for 48 hrs by sulforhodamine B assay relative to control). Details: read-out: Activity.
Format: functional

For O=C(Nc1cccc(-n2cc(-c3ccncc3)c(-c3cc(O)cc(Cl)c3)n2)c1)Nc1ccc(Cl)c(C(F)(F)F)c1, which growth at 100 µM is on record?
Its growth at 100 µM is -32%.

These compounds were tested on SW-620 (assay: Growth inhibition of human SW620 cells assessed as cell growth at 0.01 uM incubated for 48 hrs by sulforhodamine B assay relative to control). Details: SW-620, 48 h, read-out: Activity.
Format: functional

O=C(Nc1cccc(-n2cc(-c3ccncc3)c(-c3cc(O)cc(Cl)c3)n2)c1)Nc1ccc(Cl)c(C(F)(F)F)c1 was tested. Which growth at 0.01 µM did it give?
Its growth at 0.01 µM is 97%.

What follows are compounds tested on A498 (assay: Growth inhibition of human A498 cells assessed as cell growth at 100 uM incubated for 48 hrs by sulforhodamine B assay relative to control). Details: A498, 48 h, read-out: Activity.
Format: functional

For O=C(Nc1cccc(-n2cc(-c3ccncc3)c(-c3cc(O)cc(Cl)c3)n2)c1)Nc1ccc(Cl)c(C(F)(F)F)c1, which growth at 100 µM is on record?
Its growth at 100 µM is -35%.

The compounds below were run on CCRF-CEM (assay: Growth inhibition of human CCRF-CEM cells assessed as cell growth at 0.1 uM incubated for 48 hrs by sulforhodamine B assay relative to control). Details: read-out: Activity.
Format: functional

O=C(Nc1cccc(-n2cc(-c3ccncc3)c(-c3cc(O)cc(Cl)c3)n2)c1)Nc1ccc(Cl)c(C(F)(F)F)c1 was tested. Which growth at 0.1 µM did it give?
The growth at 0.1 µM was 95%.

Each compound was assayed on LOX IMVI (assay: Growth inhibition of human LOXIMVI cells assessed as cell growth at 1 uM incubated for 48 hrs by sulforhodamine B assay relative to control). Details: read-out: Activity.
Format: functional

How did the growth at 1 µM turn out when O=C(Nc1cccc(-n2cc(-c3ccncc3)c(-c3cc(O)cc(Cl)c3)n2)c1)Nc1ccc(Cl)c(C(F)(F)F)c1 was run?
The growth at 1 µM was 93%.

These compounds were tested on A498 (assay: Growth inhibition of human A498 cells assessed as cell growth at 0.1 uM incubated for 48 hrs by sulforhodamine B assay relative to control). Details: A498, 48 h, read-out: Activity.
Format: functional

For O=C(Nc1cccc(-n2cc(-c3ccncc3)c(-c3cc(O)cc(Cl)c3)n2)c1)Nc1ccc(Cl)c(C(F)(F)F)c1, which growth at 0.1 µM is on record?
The growth at 0.1 µM was 50%.
